Laboratory results taken from the supplement of paper PMC10307832.

Experiments:
Experiment in all cases: relative viability (nuclei count vs DMSO), 5 days (fraction); higher = more cells survive
NCI-H322M = test system: NCI-H322M
Summary of the method: (§1)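 Relative viability divides the nuclei count in treated wells by that in vehicle wells. Lung cancer cell lines were seeded in 1536-well plates, dosed by pin tool the next day, and fixed and stained after 5 days in one step with final 0.05% Triton X-100, 1% formaldehyde and 1 ug/ml Hoechst. Dosing was a single drug or a fixed anchor-drug dose plus five library-drug doses (not always all listed) in √10 steps, and values are medians of duplicate plates imaged at 4×.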

EPLC-272H = test system: EPLC-272H
Summary of the method: as §1

NCI-H2347 = test system: NCI-H2347
Summary of the method: as §1

NCI-H1563 = test system: NCI-H1563
Summary of the method: as §1

NCI-H1993 = test system: NCI-H1993
Summary of the method: as §1

LXF-289 = test system: LXF-289
Summary of the method: as §1

SW 1573 = test system: SW 1573
Summary of the method: as §1

H3255 = test system: H3255
Summary of the method: as §1

NCI-H2126 = test system: NCI-H2126
Summary of the method: as §1

NCI-H647 = test system: NCI-H647
Summary of the method: as §1

HOP-62 = test system: HOP-62
Summary of the method: as §1

EMC-BAC-2 = test system: EMC-BAC-2
Summary of the method: as §1

NCI-H1650 = test system: NCI-H1650
Summary of the method: as §1

NCI-H1915 = test system: NCI-H1915
Summary of the method: as §1

NCI-H661 = test system: NCI-H661
Summary of the method: as §1

NCI-H2023 = test system: NCI-H2023
Summary of the method: as §1

SK-LU-1 = test system: SK-LU-1
Summary of the method: as §1

NCI-H2085 = test system: NCI-H2085
Summary of the method: as §1

NCI-H2009 = test system: NCI-H2009
Summary of the method: as §1

LCLC-97TM1 = test system: LCLC-97TM1
Summary of the method: as §1

NCI-H727 = test system: NCI-H727
Summary of the method: as §1

PC-14 = test system: PC-14
Summary of the method: as §1

SMILES: NC(=O)Nc1cc(-c2cccc(F)c2)sc1C(=O)N[C@H]1CCCNC1 [AZD7762] + CS(=O)(=O)N1CCN(Cc2cc3nc(-c4cccc5[nH]ncc45)nc(N4CCOCC4)c3s2)CC1 [Pictilisib] (partner 1 µM)
- relative viability (NCI-H322M; first compound 0.01 µM): 0.484
- relative viability (NCI-H322M; first compound 0.03162 µM): 0.552
- relative viability (NCI-H322M; first compound 0.1 µM): 0.502
- relative viability (NCI-H322M; first compound 0.3162 µM): 0.5
- relative viability (NCI-H322M; first compound 1 µM): 0.426
- relative viability (EPLC-272H; first compound 0.01 µM): 0.309
- relative viability (EPLC-272H; first compound 0.03162 µM): 0.377
- relative viability (EPLC-272H; first compound 0.1 µM): 0.291
- relative viability (EPLC-272H; first compound 0.3162 µM): 0.316
- relative viability (EPLC-272H; first compound 1 µM): 0.247
- relative viability (NCI-H2347; first compound 0.01 µM): 0.598
- relative viability (NCI-H2347; first compound 0.03162 µM): 0.721
- relative viability (NCI-H2347; first compound 0.1 µM): 0.623
- relative viability (NCI-H2347; first compound 0.3162 µM): 0.788
- relative viability (NCI-H2347; first compound 1 µM): 0.292
- relative viability (NCI-H1563; first compound 0.01 µM): 0.648
- relative viability (NCI-H1563; first compound 0.03162 µM): 0.629
- relative viability (NCI-H1563; first compound 0.1 µM): 0.539
- relative viability (NCI-H1563; first compound 0.3162 µM): 0.617
- relative viability (NCI-H1563; first compound 1 µM): 0.623
- relative viability (NCI-H1993; first compound 0.01 µM): 0.823
- relative viability (NCI-H1993; first compound 0.03162 µM): 0.925
- relative viability (NCI-H1993; first compound 0.1 µM): 0.717
- relative viability (NCI-H1993; first compound 0.3162 µM): 0.725
- relative viability (NCI-H1993; first compound 1 µM): 0.704
- relative viability (LXF-289; first compound 0.01 µM): 0.754
- relative viability (LXF-289; first compound 0.03162 µM): 0.875
- relative viability (LXF-289; first compound 0.1 µM): 0.809
- relative viability (LXF-289; first compound 0.3162 µM): 0.855
- relative viability (LXF-289; first compound 1 µM): 0.813
- relative viability (SW 1573; first compound 0.01 µM): 0.569
- relative viability (SW 1573; first compound 0.03162 µM): 0.479
- relative viability (SW 1573; first compound 0.1 µM): 0.554
- relative viability (SW 1573; first compound 0.3162 µM): 0.54
- relative viability (SW 1573; first compound 1 µM): 0.451
- relative viability (H3255; first compound 0.01 µM): 0.527
- relative viability (H3255; first compound 0.03162 µM): 0.448
- relative viability (H3255; first compound 0.1 µM): 0.519
- relative viability (H3255; first compound 0.3162 µM): 0.514
- relative viability (H3255; first compound 1 µM): 0.418
- relative viability (NCI-H2126; first compound 0.01 µM): 0.491
- relative viability (NCI-H2126; first compound 0.03162 µM): 0.482
- relative viability (NCI-H2126; first compound 0.1 µM): 0.552
- relative viability (NCI-H2126; first compound 0.3162 µM): 0.518
- relative viability (NCI-H2126; first compound 1 µM): 0.612
- relative viability (NCI-H647; first compound 0.03162 µM): 0.559
- relative viability (NCI-H647; first compound 0.1 µM): 0.427
- relative viability (NCI-H647; first compound 0.3162 µM): 0.375
- relative viability (NCI-H647; first compound 1 µM): 0.16
- relative viability (HOP-62; first compound 0.01 µM): 0.501
- relative viability (HOP-62; first compound 0.03162 µM): 0.801
- relative viability (HOP-62; first compound 0.1 µM): 0.833
- relative viability (HOP-62; first compound 0.3162 µM): 0.645
- relative viability (HOP-62; first compound 1 µM): 0.268
- relative viability (EMC-BAC-2; first compound 0.01 µM): 0.581
- relative viability (EMC-BAC-2; first compound 0.03162 µM): 0.576
- relative viability (EMC-BAC-2; first compound 0.1 µM): 0.574
- relative viability (EMC-BAC-2; first compound 0.3162 µM): 0.542
- relative viability (EMC-BAC-2; first compound 1 µM): 0.527
- relative viability (NCI-H1650; first compound 0.01 µM): 0.62
- relative viability (NCI-H1650; first compound 0.03162 µM): 0.657
- relative viability (NCI-H1650; first compound 0.1 µM): 0.515
- relative viability (NCI-H1650; first compound 0.3162 µM): 0.391
- relative viability (NCI-H1650; first compound 1 µM): 0.155
- relative viability (NCI-H1915; first compound 0.01 µM): 0.931
- relative viability (NCI-H1915; first compound 0.03162 µM): 0.96
- relative viability (NCI-H1915; first compound 0.1 µM): 1.02
- relative viability (NCI-H1915; first compound 0.3162 µM): 0.918
- relative viability (NCI-H1915; first compound 1 µM): 0.924
- relative viability (NCI-H661; first compound 0.01 µM): 0.41
- relative viability (NCI-H661; first compound 0.03162 µM): 0.406
- relative viability (NCI-H661; first compound 0.1 µM): 0.356
- relative viability (NCI-H661; first compound 0.3162 µM): 0.316
- relative viability (NCI-H661; first compound 1 µM): 0.312
- relative viability (NCI-H2023; first compound 0.01 µM): 0.228
- relative viability (NCI-H2023; first compound 0.03162 µM): 0.227
- relative viability (NCI-H2023; first compound 0.1 µM): 0.176
- relative viability (NCI-H2023; first compound 0.3162 µM): 0.11
- relative viability (NCI-H2023; first compound 1 µM): 0.091
- relative viability (SK-LU-1; first compound 0.01 µM): 0.694
- relative viability (SK-LU-1; first compound 0.03162 µM): 0.644
- relative viability (SK-LU-1; first compound 0.1 µM): 0.337
- relative viability (SK-LU-1; first compound 0.3162 µM): 0.176
- relative viability (SK-LU-1; first compound 1 µM): 0.2
- relative viability (NCI-H2085; first compound 0.01 µM): 0.407
- relative viability (NCI-H2085; first compound 0.03162 µM): 0.507
- relative viability (NCI-H2085; first compound 0.1 µM): 0.486
- relative viability (NCI-H2085; first compound 0.3162 µM): 0.516
- relative viability (NCI-H2085; first compound 1 µM): 0.361
- relative viability (NCI-H2009; first compound 0.01 µM): 0.867
- relative viability (NCI-H2009; first compound 0.03162 µM): 0.865
- relative viability (NCI-H2009; first compound 0.1 µM): 0.909
- relative viability (NCI-H2009; first compound 0.3162 µM): 0.677
- relative viability (NCI-H2009; first compound 1 µM): 0.321
- relative viability (LCLC-97TM1; first compound 0.01 µM): 0.201
- relative viability (LCLC-97TM1; first compound 0.03162 µM): 0.201
- relative viability (LCLC-97TM1; first compound 0.1 µM): 0.277
- relative viability (LCLC-97TM1; first compound 0.3162 µM): 0.216
- relative viability (LCLC-97TM1; first compound 1 µM): 0.152
- relative viability (NCI-H727; first compound 0.01 µM): 0.429
- relative viability (NCI-H727; first compound 0.03162 µM): 0.346
- relative viability (NCI-H727; first compound 0.1 µM): 0.321
- relative viability (NCI-H727; first compound 0.3162 µM): 0.243
- relative viability (NCI-H727; first compound 1 µM): 0.269
- relative viability (PC-14; first compound 0.01 µM): 0.763
- relative viability (PC-14; first compound 0.03162 µM): 0.795
- relative viability (PC-14; first compound 0.1 µM): 0.67
- relative viability (PC-14; first compound 0.3162 µM): 0.474
- relative viability (PC-14; first compound 1 µM): 0.309
